The target of one experiment is T1, D(4) dopamine receptor (Homo sapiens, UniProt P21917).
T1 sequence (P21917 whole entry): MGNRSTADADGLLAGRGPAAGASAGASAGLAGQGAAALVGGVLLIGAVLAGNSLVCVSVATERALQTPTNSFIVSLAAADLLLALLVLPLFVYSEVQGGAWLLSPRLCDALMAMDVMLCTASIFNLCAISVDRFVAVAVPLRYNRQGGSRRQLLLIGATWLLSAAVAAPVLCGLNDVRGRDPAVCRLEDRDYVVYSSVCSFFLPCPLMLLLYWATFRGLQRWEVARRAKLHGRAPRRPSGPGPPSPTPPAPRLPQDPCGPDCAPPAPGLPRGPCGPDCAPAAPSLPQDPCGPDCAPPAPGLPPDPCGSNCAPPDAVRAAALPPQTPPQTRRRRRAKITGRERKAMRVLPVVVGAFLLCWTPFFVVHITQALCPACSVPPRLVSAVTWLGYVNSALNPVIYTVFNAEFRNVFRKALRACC
The experiment is described as follows: Displacement of [3H]N-methylspiperone from human dopamine D4 receptor expressed in human HEK293 cell membrane for 1 hr by liquid scintillation counting analysis. Type of experiment: cell membranes. A general note: Loss of bound radioactivity is the signal in a displacement assay; it reports binding, not function.

The next experiment deals with D(3) dopamine receptor (Homo sapiens, UniProt P35462). The experiment is described as follows: biochemical.
Chain of D(3) dopamine receptor (P35462 whole entry): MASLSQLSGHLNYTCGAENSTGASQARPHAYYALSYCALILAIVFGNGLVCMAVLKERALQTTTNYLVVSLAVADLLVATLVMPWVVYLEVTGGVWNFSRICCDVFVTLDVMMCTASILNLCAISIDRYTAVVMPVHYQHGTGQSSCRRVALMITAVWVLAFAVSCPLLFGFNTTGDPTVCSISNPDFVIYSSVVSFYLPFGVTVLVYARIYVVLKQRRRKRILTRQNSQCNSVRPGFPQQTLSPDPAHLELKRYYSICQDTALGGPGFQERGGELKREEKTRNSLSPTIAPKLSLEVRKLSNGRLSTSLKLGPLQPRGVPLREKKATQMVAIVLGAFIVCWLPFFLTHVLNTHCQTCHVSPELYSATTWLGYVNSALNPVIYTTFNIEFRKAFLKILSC
For a further experiment, the target named is D(2) dopamine receptor (Homo sapiens, UniProt P14416). The experiment is described as follows: Displacement of [3H]N-methylspiperone from human dopamine D2 receptor expressed in human HEK293 cell membrane for 1 hr by liquid scintillation counting analysis. Type of experiment: cell membranes.
Chain of D(2) dopamine receptor (P14416 whole entry): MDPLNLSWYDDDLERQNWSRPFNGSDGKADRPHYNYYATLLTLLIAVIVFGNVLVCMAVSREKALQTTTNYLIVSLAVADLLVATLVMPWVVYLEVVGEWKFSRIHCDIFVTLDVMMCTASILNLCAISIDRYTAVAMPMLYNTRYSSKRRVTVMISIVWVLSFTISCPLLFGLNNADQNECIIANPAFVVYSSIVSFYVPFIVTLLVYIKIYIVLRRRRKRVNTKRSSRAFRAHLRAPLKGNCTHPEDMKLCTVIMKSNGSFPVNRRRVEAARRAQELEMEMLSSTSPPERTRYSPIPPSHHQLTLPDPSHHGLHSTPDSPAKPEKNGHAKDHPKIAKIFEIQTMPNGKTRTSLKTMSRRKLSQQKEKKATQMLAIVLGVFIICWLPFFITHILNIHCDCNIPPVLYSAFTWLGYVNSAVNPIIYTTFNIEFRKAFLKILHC

Molecules are shown by their SMILES. pKi: −log10 of the molar value. Some results are limits rather than exact numbers.

From ChEMBL document CHEMBL3286326, “Chiral Resolution and Serendipitous Fluorination Reaction for the Selective Dopamine D3 Receptor Antagonist BAK2-66” (ACS Med Chem Lett, 2014) come the findings set out here.

Description for D(3) dopamine receptor: Displacement of [3H]N-methylspiperone from human dopamine D3 receptor expressed in human HEK293 cell membrane for 1 hr by liquid scintillation counting analysis

Turning to `O=C(NCCC(CF)N1CCN(c2cccc(Cl)c2Cl)CC1)c1cc2ccccc2o1` (stereo not drawn), the pKi (as a rule, −log10 of the Ki, conventionally taken in molar units) on D(4) dopamine receptor was less than 5.52; at D(3) dopamine receptor, 6.25; on D(2) dopamine receptor, 5.13.
